Reference: paper PMC10415349, “Structural basis of agonist specificity of α1A-adrenergic receptor” (Nature Communications, 2023)

Key:
[1] = biological target: T1, α1B-AR(A204V, S208A, L314M) (Homo sapiens, UniProt P35368, A204V/L314M/S208A); test: Ca2+ imaging (GCaMP6f) in transfected HEK293T cells; type: cell-based
T1 construct: gene ADRA1B
T1 sequence (P35368 1-520 A204V/S208A/L314M): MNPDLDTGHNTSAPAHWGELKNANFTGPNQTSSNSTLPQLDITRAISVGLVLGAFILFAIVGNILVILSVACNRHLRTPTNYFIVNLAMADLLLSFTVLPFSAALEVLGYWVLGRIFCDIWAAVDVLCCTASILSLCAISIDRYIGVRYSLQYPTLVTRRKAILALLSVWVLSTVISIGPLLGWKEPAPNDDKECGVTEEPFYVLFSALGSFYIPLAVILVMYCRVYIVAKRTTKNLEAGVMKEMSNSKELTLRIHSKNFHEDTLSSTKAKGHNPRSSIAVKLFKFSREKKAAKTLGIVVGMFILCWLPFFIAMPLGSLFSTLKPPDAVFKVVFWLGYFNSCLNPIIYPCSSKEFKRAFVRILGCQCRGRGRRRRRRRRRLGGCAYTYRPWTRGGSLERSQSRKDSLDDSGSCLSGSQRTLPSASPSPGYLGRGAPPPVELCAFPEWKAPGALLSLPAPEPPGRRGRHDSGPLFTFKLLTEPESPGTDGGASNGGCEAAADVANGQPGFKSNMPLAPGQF

[2] = biological target: T2, α1A-AR(V185A, A189S, M292L) (Homo sapiens, UniProt P35348, V185A/A189S/M292L)
T2 construct: gene ADRA1A
T2 sequence (P35348 whole entry V185A/A189S/M292L): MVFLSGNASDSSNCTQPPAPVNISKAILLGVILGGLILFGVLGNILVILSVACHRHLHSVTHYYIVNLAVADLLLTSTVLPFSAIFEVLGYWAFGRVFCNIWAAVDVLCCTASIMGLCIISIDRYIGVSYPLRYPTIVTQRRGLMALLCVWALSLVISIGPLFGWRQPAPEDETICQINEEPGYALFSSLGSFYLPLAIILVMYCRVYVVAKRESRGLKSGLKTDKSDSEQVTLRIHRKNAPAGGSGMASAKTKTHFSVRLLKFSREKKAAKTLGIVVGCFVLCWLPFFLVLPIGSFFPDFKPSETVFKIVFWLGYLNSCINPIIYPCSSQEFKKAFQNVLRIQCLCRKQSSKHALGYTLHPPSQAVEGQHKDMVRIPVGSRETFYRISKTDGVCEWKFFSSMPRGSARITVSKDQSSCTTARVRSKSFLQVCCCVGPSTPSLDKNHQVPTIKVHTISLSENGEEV

Compound: CS(=O)(=O)Nc1c(O)ccc2c1CCCC2C1=NCCN1 (centres unmarked) [A61603]
- EC50 [1]: ~10 nM

Compound: CNC[C@H](O)c1ccc(O)c(O)c1 [epinephrine]
- Ca2+ imaging (GCaMP6f) in transfected HEK293T cells, saturating concentration [2]: This triple mutant was still functional in response to epinephrine
